Results published in patent publication US20240228488A1 (TAKEDA PHARMACEUTICAL COMPANY LIMITED, priority 2021, published 2024).

Target: human activated kallikrein enzyme (Homo sapiens, UniProt P03952)
Experiment: Plasma kallikrein inhibition, fluorogenic PFR-AMC substrate, 500 pM activated kallikrein format
Type: biochemical
Conditions: 500 pM activated kallikrein, 300 uM PFR-AMC, 30 min preincubation, 10 min reaction; read-out: Primary Dose Response Assay: Average EC50
Outline: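 Fluorescence (ex 380/em 460 nm) is read after 10 min of 300 uM PFR-AMC turnover by 500 pM enzyme at RT. Compounds sit with enzyme for 30 min beforehand. Buffer is Tris (pH 7.5) with EDTA, NaCl, PEG-400 and Triton X-100; EC50 values are banded.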

human activated kallikrein enzyme, sequence (P03952 391-638 limits assumed): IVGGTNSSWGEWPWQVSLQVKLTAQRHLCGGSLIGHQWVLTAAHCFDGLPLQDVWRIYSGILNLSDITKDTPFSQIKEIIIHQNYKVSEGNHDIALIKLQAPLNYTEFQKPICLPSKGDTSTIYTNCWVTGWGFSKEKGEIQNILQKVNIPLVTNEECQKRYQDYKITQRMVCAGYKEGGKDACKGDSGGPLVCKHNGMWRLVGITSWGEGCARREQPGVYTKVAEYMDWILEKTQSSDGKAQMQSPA
human activated kallikrein enzyme, sequence (P03952 20-390 partner limits assumed): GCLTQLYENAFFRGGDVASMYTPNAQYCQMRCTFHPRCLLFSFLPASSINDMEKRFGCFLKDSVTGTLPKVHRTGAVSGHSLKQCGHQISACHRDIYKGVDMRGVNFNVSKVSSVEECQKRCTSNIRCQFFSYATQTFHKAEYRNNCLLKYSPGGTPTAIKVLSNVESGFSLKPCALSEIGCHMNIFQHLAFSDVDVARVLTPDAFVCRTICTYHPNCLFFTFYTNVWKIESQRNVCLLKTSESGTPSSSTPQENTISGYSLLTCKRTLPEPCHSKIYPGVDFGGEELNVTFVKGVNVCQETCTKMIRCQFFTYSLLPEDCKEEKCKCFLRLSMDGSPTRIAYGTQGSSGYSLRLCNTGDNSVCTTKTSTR

Row | Compound | EC50 [nM]
1 | O=C(Nc1cc(NC(c2cn3cc(C4CC4)ccc3n2)C(F)(F)F)ccn1)[C@H]1C[C@@H]1c1cccc(Cl)c1 (stereo partly drawn) [Example 141] | 100 to 1000
2 | N#Cc1ccc(Cl)cc1[C@@H]1C[C@H]1C(=O)Nc1cc(NCc2cn3cc(C4CC4)ccc3n2)ccn1 (single isomer, unassigned) [Example 83] | 10 to 100
3 | O=C(O)COc1ccc(Cl)cc1[C@H]1C[C@@H]1C(=O)Nc1cc(NCc2cn3cc(C4CC4)ccc3n2)ncn1 (racemic) [Example 315, rac-3-(4-chloro-2-((1S*,2S*)-2-((6-(((6-cyclopropylimidazo[1,2-a]pyridin-2-yl)methyl)amino)pyrimidin-4-yl)carbamoyl)cyclopropyl)phenoxy)acetic acid] | 100 to 1000
4 | NCc1cc(C2CC2)cn2cc(COc3ccnc(NC(=O)[C@H]4C[C@@H]4c4cccc(Cl)c4)c3)nc12 (racemic) [Example 572, rac-(1S*,2S*)—N-(4-((8-(aminomethyl)-6-cyclopropylimidazo[1,2-a]pyridin-2-yl)methoxy)pyridin-2-yl)-2(3-chlorophenyl)cyclopropane-1-carboxamide] | 1 to 10
5 | N#CC1(c2cccc(Cl)c2)CC1C(=O)Nc1cc(NCc2cn3cc(C4CC4)ccc3n2)ncn1 (stereo not drawn) [Example 349, 2-(3-chlorophenyl)-2-cyano-N-(6-(((6-cyclopropylimidazo[1,2-a]pyridin-2-yl)methyl)amino)pyrimidin-4-yl)cyclopropane-1-carboxamide] | > 6000
6 | COCCOc1ccc(Cl)cc1[C@H]1C[C@@H]1C(=O)Nc1cc(NCc2cn3cc(C4CC4)ccc3n2)ncn1 (racemic) [Example 310, rac-(1S*,2S*)-2-(5-chloro-2-(2-methoxyethoxy)phenyl)-N-(6-(((6-cyclopropylimidazo[1,2-a]pyridin-2-yl)methyl)amino)pyrimidin-4-yl)cyclopropane-1-carboxamide] | 100 to 1000
7 | O=C(Nc1ncncc1OCc1cn2cc(C3CC3)ccc2n1)[C@H]1C[C@@H]1c1cccc(Cl)c1 [Example 596, (1S,2S)-2-(3-chlorophenyl)-N-(5-((6-cyclopropylimidazo[1,2-a]pyridin-2-yl)methoxy)pyrimidin-4-yl)cyclopropane-1-carboxamide] | 10 to 100
8 | Cc1ccnc([C@H]2C[C@@H]2C(=O)Nc2cc(N(CC(=O)O)Cc3cn4cc(C5CC5)cc(N5CC(=O)N(C)C5=O)c4n3)ncn2)n1 [Example 461, N-((6-cyclopropyl-8-(3-methyl-2,4-dioxoimidazolidin-1-yl)imidazo[1,2-a]pyridin-2-yl)methyl)-N-(6-((1S,2S)-2-(4-methylpyrimidin-2-yl)cyclopropane-1-carboxamido)pyrimidin-4-yl)glycine] | 1 to 10
9 | O=C(Nc1cc(NCc2cn3cc(C4CC4)ccc3n2)ncn1)[C@H]1C[C@@H]1c1cccc(Cl)c1[N+](=O)[O-] (racemic) [Example I-190, rac-(1S*,2S*)-2-(3-chloro-2-nitrophenyl)-N-(6-(((6-cyclopropylimidazo[1,2-a]pyridin-2-yl)methyl)amino)pyrimidin-4-yl)cyclopropane-1-carboxamide] | > 6000
10 | COc1ccc(C#N)c([C@H]2C[C@@H]2C(=O)Nc2cc(NCc3cn4cc(C5CC5)ccc4n3)ccn2)c1 (racemic) [Example I-206, rac-(1S*,2S*)-2-(2-cyano-5-methoxyphenyl)-N-(4-(((6-cyclopropylimidazo[1,2-a]pyridin-2-yl)methyl)amino)pyridin-2-yl)cyclopropane-1-carboxamide] | 10 to 100
11 | N#Cc1ccc(Cl)cc1[C@H]1C[C@@H]1C(=O)Nc1cc(NCc2cn3cc(C4CC4)ccc3n2)ccn1 (single isomer, unassigned) [Example 84] | < 1
12 | Cc1ccnc([C@@H]2C[C@H]2C(=O)Nc2cc(NCc3cn4cc(C5CC5)cc(S(C)(=O)=O)c4n3)ncn2)n1 (single isomer, unassigned) [Example 323] | 10 to 100
13 | Cc1ccnc([C@H]2C[C@@H]2C(=O)Nc2cc(OCc3cn4cc(C5CC5)cc(N5CC6CC6C5=O)c4n3)cnn2)n1 (stereo partly drawn) [Example 571, (1S,2S)-N-(5-((6-cyclopropyl-8-(2-oxo-3-azabicyclo[3.1.0]hexan-3-yl)imidazo[1,2-a]pyridin-2-yl)methoxy)pyridazin-3-yl)-2-(4-methylpyrimidin-2-yl)cyclopropane-1-carboxamide] | < 1
14 | Cc1ccnc([C@H]2C[C@@H]2C(=O)Nc2ncc3oc(=O)n(Cc4cn5cc(C6CC6)cc(N6CC(=O)N(C)C6=O)c5n4)c3n2)n1 (racemic) [Example 626, rac-(1S*,2S*)—N-(3-((6-cyclopropyl-8-(3-methyl-2,4-dioxoimidazolidin-1-yl)imidazo[1,2-a]pyridin-2-yl)methyl)-2-oxo-2,3-dihydrooxazolo[4,5-d]pyrimidin-5-yl)-2-(4-methylpyrimidin-2-yl)cyclopropane-1-carboxamide] | < 1
15 | Cc1ccnc([C@H]2C[C@@H]2C(=O)Nc2cc(N[C@H](C)c3cn4cc(C5CC5)cc(N5CC(=O)N(C)C5=O)c4n3)nc(N(C)C)n2)n1 [Example 441, (1S,2S)-N-(6-(((R)-1-(6-cyclopropyl-8-(3-methyl-2,4-dioxoimidazolidin-1-yl)imidazo[1,2-a]pyridin-2-yl)ethyl)amino)-2-(dimethylamino)pyrimidin-4-yl)-2-(4-methylpyrimidin-2-yl)cyclopropane-1-carboxamide] | < 1
16 | N#Cc1ccc(Cl)cc1[C@H]1C[C@@H]1C(=O)Nc1cc(C(O)c2cn3cc(C4CC4)ccc3n2)ncn1 (relative stereo) [Example 352, rac-(1S*,2S*)-2-(5-chloro-2-cyanophenyl)-N-(6-((6-cyclopropylimidazo[1,2-a]pyridin-2-yl)(hydroxy)methyl)pyrimidin-4-yl)cyclopropane-1-carboxamide] | 10 to 100
17 | O=C(Nc1cc(NCc2cn3cc(C4CC4)ccc3n2)ncn1)[C@H]1C[C@@H]1c1ccc(Cl)s1 (racemic) [Example I-185, rac-(1S*,2S*)-2-(5-chlorothiophen-2-yl)-N-(6-(((6-cyclopropylimidazo[1,2-a]pyridin-2-yl)methyl)amino)pyrimidin-4-yl)cyclopropane-1-carboxamide] | 100 to 1000
18 | O=C(Nc1cc(NCc2cn3cc(C4CC4)ccc3n2)ccn1)[C@H]1C[C@@H]1c1cc(Cl)ncn1 (racemic) [Example I-210, rac-(1S*,2S*)-2-(6-chloropyrimidin-4-yl)-N-(4-(((6-cyclopropylimidazo[1,2-a]pyridin-2-yl)methyl)amino)pyridin-2-yl)cyclopropane-1-carboxamide] | 100 to 1000
19 | O=C(Nc1cc(NCc2cn3cc(C4CC4)cc(N4CCCS4(=O)=O)c3n2)ccn1)[C@H]1C[C@@H]1c1cccc(Cl)c1 [Example 121] | < 1
20 | O=C(Nc1cc(NCc2cn3cc(C4CC4)ccc3n2)ncn1)[C@H]1C[C@@H]1c1ccc(F)c(Cl)c1 (racemic) [Example 45, rac-(1S*,2S*)-2-(3-chloro-4-fluorophenyl)-N-(6-(((6-cyclopropylimidazo[1,2-a]pyridin-2-yl)methyl)amino)pyrimidin-4-yl)cyclopropane-1-carboxamide] | 100 to 1000
21 | O=C(Nc1cc(NCc2cn3cc(C4CC4)ccc3n2)nc(N2CCCC2)n1)[C@@H]1C[C@H]1c1cccc(Cl)c1 (racemic) [Example 105, rac-(1S*,2S*)-2-(3-chlorophenyl)-N-(6-(((6-cyclopropylimidazo[1,2-a]pyridin-2-yl)methyl)amino)-2-(pyrrolidin-1-yl)pyrimidin-4-yl)cyclopropane-1-carboxamide] | 100 to 1000
22 | Nc1ccc(Cl)cc1[C@H]1C[C@@H]1C(=O)Nc1nccc2nn(Cc3cn4cc(C5CC5)ccc4n3)cc12 (racemic) [Example 585, rac-(1S*,2S*)-2-(2-amino-5-chlorophenyl)-N-(2-((6-cyclopropylimidazo[1,2-a]pyridin-2-yl)methyl)-2H-pyrazolo[4,3-c]pyridin-4-yl)cyclopropane-1-carboxamide] | 10 to 100
23 | Cc1ccnc([C@H]2C[C@@H]2C(=O)Nc2nccc3nn(Cc4cn5cc(C6CC6)cc(N6CC(=O)N(C)C6=O)c5n4)cc23)n1 (racemic) [Example 576, rac-(1S*,2S*)—N-(2-((6-cyclopropyl-8-(3-methyl-2,4-dioxoimidazolidin-1-yl)imidazo[1,2-a]pyridin-2-yl)methyl)-2H-pyrazolo[4,3-c]pyridin-4-yl)-2-(4-methylpyrimidin-2-yl)cyclopropane-1-carboxamide] | < 1
24 | O=C(Nc1cc(NCc2cn3cc(C4CC4)ccc3n2)ncn1)[C@H]1C[C@@H]1c1cc(Cl)ccc1-n1cnnn1 (racemic) [Example 316, rac-(1S*,2S*)-2-(5-chloro-2-(1H-tetrazol-1-yl)phenyl)-N-(6-(((6-cyclopropylimidazo[1,2-a]pyridin-2-yl)methyl)amino)pyrimidin-4-yl)cyclopropane-1-carboxamide] | 1 to 10
25 | Cc1ccnc([C@H]2C[C@@H]2C(=O)Nc2cc(N[C@H](C)c3cn4cc(C5CC5)cc(N5CCN(C)C5=O)c4n3)ncn2)n1 [Example 536, (1S,2S)-N-(6-(((R)-1-(6-cyclopropyl-8-(3-methyl-2-oxoimidazolidin-1-yl)imidazo[1,2-a]pyridin-2-yl)ethyl)amino)pyrimidin-4-yl)-2-(4-methylpyrimidin-2-yl)cyclopropane-1-carboxamide] | < 1
26 | O=C(Nc1cc(OCc2cn3cc(C4CC4)ccc3n2)cnn1)[C@H]1C[C@@H]1c1cccc(Cl)c1 (racemic) [Example 103, rac-(1S*,2S*)-2-(3-chlorophenyl)-N-(5-((6-cyclopropylimidazo[1,2-a]pyridin-2-yl)methoxy)pyridazin-3-yl)cyclopropane-1-carboxamide] | 10 to 100
27 | Cc1ccnc([C@H]2C[C@@H]2C(=O)Nc2cc(NC(CO)c3cn4cc(C5CC5)cc(N5CC(=O)N(C)C5=O)c4n3)nc(C)n2)n1 (stereo partly drawn) [Example I-650, (1S,2S)—N-(6-((1-(6-cyclopropyl-8-(3-methyl-2,4-dioxoimidazolidin-1-yl)imidazo[1,2-a]pyridin-2-yl)-2-hydroxyethyl)amino)-2-methylpyrimidin-4-yl)-2-(4-methylpyrimidin-2-yl)cyclopropane-1-carboxamide] | < 1
